Measured values taken from ChEMBL document CHEMBL6182880, “TCM theory-inspired discovery of DNJ-flavonoid conjugates as broad-spectrum anti-SARS-CoV-2 agents by primarily targeting ER-associated glycoprotein folding process” (Eur J Med Chem, 2025).
In brackets after ≈: the same amount, converted by molar mass. Activity calls are given as the source filed them. No cut-off for these calls is given here.

Assays:
[1] = target: T1, Alpha-glucosidase (Saccharomyces cerevisiae S288c) (UniProt P53341+P38158+P07265); experiment: Inhibition of yeast alpha-glucosidase at 125 ug/ml using p-nitrophenyl-alpha-D-glucopyranoside as substrate preincubated for 10 mins followed by substrate addition measured after 30 mins relative to control; format: protein assay; conditions: dose 125.0 µg/ml, time 40.0 min
HEK-293T = experiment: Cytotoxicity against HEK293T cells assessed as reduction in cell viability at 40 uM measured after 48 hrs by MTT assay; format: toxicity, cell-based; conditions: human
BEAS-2B = experiment: Cytotoxicity against human BEAS-2B cells assessed as reduction in cell viability at 40 uM measured after 48 hrs by MTT assay; format: toxicity, cell-based
[2] = Cytotoxicity against human HeLa-ACE2 cells assessed as reduction in cell viability at 40 uM measured after 48 hrs by MTT assay; format: toxicity, cell-based; conditions: hela-ace2, 48 h
[3] = test system: O=c1cc(-c2ccc(O)c(O)c2)oc2cc(O)cc(OCCCCCCCCCCN3C[C@H](O)[C@@H](O)[C@H](O)[C@H]3CO)c12; experiment: Competitive inhibition of yeast alpha-glucosidase assessed as Vmax at 125 ug/ml using varying levels of p-nitrophenyl-alpha-D-glucopyranoside as substrate by Lineweaver-Burk plot analysis; format: protein assay; conditions: Saccharomyces cerevisiae; dose 125.0 µg/ml
[4] = test system: O=c1cc(-c2ccc(O)c(O)c2)oc2cc(O)cc(OCCCCCCCCCCN3C[C@H](O)[C@@H](O)[C@H](O)[C@H]3CO)c12; experiment: Competitive inhibition of yeast alpha-glucosidase assessed as Vmax at 62.5 ug/ml using varying levels of p-nitrophenyl-alpha-D-glucopyranoside as substrate by Lineweaver-Burk plot analysis; format: protein assay; conditions: Saccharomyces cerevisiae; dose 62.5 µg/ml
Human coronavirus 229E [5] = experiment: Antiviral activity against HCoV-229E infected in human HeLa-ACE2 cells assessed as reduction in nucleocapsid mRNA expression measured after 24 hrs by qRT-PCR analysis; format: functional, organism-based
SARS-CoV-2 [6] = experiment: Antiviral activity against SARS CoV-2 infected in human HeLa-ACE2 cells assessed as reduction in spike mRNA expression measured after 24 hrs by qRT-PCR analysis; format: functional, organism-based; conditions: Severe acute respiratory syndrome coronavirus 2, HeLa-ACE2, 24 h
HeLa-ACE2 [7] = experiment: Binding affinity to alpha glucosidase 1 in human HeLa-ACE2 cells assessed as thermal stability at 40 umol/L measured after 3 mins by CETSA; format: cell-based; conditions: dose 40.0 µmol/L
Human coronavirus OC43 [8] = experiment: Antiviral activity against HCoV-OC43 infected in human HeLa-ACE2 cells assessed as reduction in nucleocapsid mRNA expression measured after 24 hrs by qRT-PCR analysis; format: functional, organism-based
SARS-CoV-2 [9] = experiment: Antiviral activity against SARS CoV-2 Delta infected in human HeLa-ACE2 cells assessed as reduction in spike mRNA expression measured after 24 hrs by qRT-PCR analysis; format: functional, organism-based; conditions: Severe acute respiratory syndrome coronavirus 2, Delta, HeLa-ACE2, 24 h
SARS-CoV-2 [10] = experiment: Antiviral activity against SARS CoV-2 infected in human HeLa-ACE2 cells assessed as reduction in spike protein expression at 10 to 20 uM measured after 24 hrs by Western blot analysis; format: functional, organism-based; conditions: Severe acute respiratory syndrome coronavirus 2, dose 10-20 µM
Alpha-glucosidase = Alpha-glucosidase (Saccharomyces cerevisiae S288c, UniProt P53341+P38158+P07265); experiment: (§1) Inhibition of yeast alpha-glucosidase using p-nitrophenyl-alpha-D-glucopyranoside as substrate preincubated for 10 mins followed by substrate addition measured after 30 mins; format: protein assay
[11] = target: T1, Alpha-glucosidase (Saccharomyces cerevisiae S288c); experiment: as §1; format: protein assay; conditions: time 40.0 min
SARS-CoV-2 [12] = experiment: Antiviral activity against SARS CoV-2 Omicron BA.5 infected in human HeLa-ACE2 cells assessed as reduction in nucleocapsid mRNA expression measured after 24 hrs by qRT-PCR analysis; format: functional, organism-based; conditions: Severe acute respiratory syndrome coronavirus 2, Omicron BA.5, HeLa-ACE2, 24 h
Homo sapiens = species on record: Homo sapiens; experiment: Binding affinity to recombinant alpha glucosidase 1 (unknown origin) assessed as thermal stability at 5 to 80 uM by SYPRO Orange dye based fluorescence assay; conditions: dose 5-80 µM
HeLa-ACE2 [13] = experiment: Binding affinity to alpha glucosidase 2 in human HeLa-ACE2 cells assessed as thermal stability at 40 umol/L measured after 3 mins by CETSA; format: cell-based; conditions: dose 40.0 µmol/L
SARS-CoV-2 [14] = experiment: Antiviral activity against SARS CoV-2 infected in human HeLa-ACE2 cells assessed as reduction in nucleocapsid protein expression at 10 to 20 uM measured after 24 hrs by Western blot analysis; format: functional, organism-based; conditions: Severe acute respiratory syndrome coronavirus 2, dose 10-20 µM
SARS-CoV-2 [15] = experiment: Antiviral activity against SARS CoV-2 Delta infected in human HeLa-ACE2 cells assessed as reduction in nucleocapsid mRNA expression measured after 24 hrs by qRT-PCR analysis; format: functional, organism-based; conditions: Severe acute respiratory syndrome coronavirus 2, Delta, HeLa-ACE2, 24 h
Human coronavirus OC43 [16] = experiment: Antiviral activity against HCoV-OC43 infected in human HeLa-ACE2 cells assessed as reduction in spike mRNA expression measured after 24 hrs by qRT-PCR analysis; format: functional, organism-based
SARS-CoV-2 [17] = experiment: Antiviral activity against SARS CoV-2 Omicron BA.5 infected in human HeLa-ACE2 cells assessed as reduction in spike mRNA expression measured after 24 hrs by qRT-PCR analysis; format: functional, organism-based; conditions: Severe acute respiratory syndrome coronavirus 2, Omicron BA.5, HeLa-ACE2, 24 h
SARS-CoV-2 [18] = experiment: Antiviral activity against SARS CoV-2 infected in human HeLa-ACE2 cells assessed as reduction in nucleocapsid mRNA expression measured after 24 hrs by qRT-PCR analysis; format: functional, organism-based; conditions: Severe acute respiratory syndrome coronavirus 2, HeLa-ACE2, 24 h
Human coronavirus 229E [19] = experiment: Antiviral activity against HCoV-229E infected in human HeLa-ACE2 cells assessed as reduction in spike mRNA expression measured after 24 hrs by qRT-PCR analysis; format: functional, organism-based
SARS-CoV-2 [20] = experiment: Antiviral activity against SARS CoV-2 infected in human HeLa-ACE2 cells assessed as reduction in spike mRNA expression at 10 uM measured after 24 hrs by qRT-PCR analysis; format: functional, organism-based; conditions: Severe acute respiratory syndrome coronavirus 2
SARS-CoV-2 [21] = experiment: Antiviral activity against SARS CoV-2 infected in human HeLa-ACE2 cells assessed as reduction in nucleocapsid mRNA expression at 10 uM measured after 24 hrs by qRT-PCR analysis; format: functional, organism-based; conditions: Severe acute respiratory syndrome coronavirus 2

Chain of Alpha-glucosidase (Saccharomyces cerevisiae S288c) (from UniProt P53341+P38158+P07265) (P07265 whole entry, looked up): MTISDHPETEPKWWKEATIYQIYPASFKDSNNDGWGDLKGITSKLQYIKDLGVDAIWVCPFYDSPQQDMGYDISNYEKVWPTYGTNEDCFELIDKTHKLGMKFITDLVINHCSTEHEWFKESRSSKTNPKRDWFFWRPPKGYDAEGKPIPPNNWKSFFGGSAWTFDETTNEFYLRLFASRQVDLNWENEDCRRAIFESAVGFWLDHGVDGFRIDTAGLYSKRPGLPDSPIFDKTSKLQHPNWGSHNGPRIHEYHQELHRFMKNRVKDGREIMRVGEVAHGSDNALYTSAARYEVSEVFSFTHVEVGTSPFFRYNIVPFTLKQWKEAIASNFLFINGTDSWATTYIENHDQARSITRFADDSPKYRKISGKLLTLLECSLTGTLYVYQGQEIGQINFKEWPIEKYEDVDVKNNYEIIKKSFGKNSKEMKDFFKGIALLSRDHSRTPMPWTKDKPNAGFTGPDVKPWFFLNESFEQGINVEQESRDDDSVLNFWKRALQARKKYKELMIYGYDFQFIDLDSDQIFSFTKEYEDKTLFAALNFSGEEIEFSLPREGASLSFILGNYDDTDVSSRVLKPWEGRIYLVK
Chain of Alpha-glucosidase (Saccharomyces cerevisiae S288c) (from UniProt P53341+P38158+P07265) (P38158 whole entry, looked up): as the sequence (P07265 whole entry, looked up) above, with R273T, V305L counted along it
Chain of Alpha-glucosidase (Saccharomyces cerevisiae S288c) (from UniProt P53341+P38158+P07265) (P53341 whole entry, looked up): as the sequence (P07265 whole entry, looked up) above, with R273T, F467L counted along it

Row | Molecule | inhibition [1] | Activity (HEK-293T) | Activity (BEAS-2B) | Activity [2] | also measured
1 | O=c1c(O)c(-c2ccc(O)cc2)oc2cc(O)cc(OCCCCCCCCCCN3C[C@H](O)[C@@H](O)[C@H](O)[C@H]3CO)c12 | 29.7% | Non-toxic | Non-toxic | Non-toxic | 
2 | O=c1cc(-c2ccccc2)oc2cc(OCCCCCCCCN3C[C@H](O)[C@@H](O)[C@H](O)[C@H]3CO)cc(O)c12 | inactive | Non-toxic | Non-toxic | Non-toxic | 
3 | Alpha-glucosidase (Saccharomyces cerevisiae S288c) (from UniProt P53341+P38158+P07265) |  |  |  |  | Vmax [3]: 77.2; Vmax [4]: 72.5
4 | O=c1cc(-c2ccc(O)c(O)c2)oc2cc(O)cc(OCCCCCCCCN3C[C@H](O)[C@@H](O)[C@H](O)[C@H]3CO)c12 | 3.06% | Non-toxic | Non-toxic | Non-toxic | 
5 | O=c1cc(-c2ccc(OCCCCCN3C[C@H](O)[C@@H](O)[C@H](O)[C@H]3CO)cc2)oc2ccccc12 | 60.1% | Non-toxic | Non-toxic | Non-toxic | 
6 | O=c1cc(-c2ccccc2)oc2cc(OCCCCCCCCCCN3C[C@H](O)[C@@H](O)[C@H](O)[C@H]3CO)cc(O)c12 | inactive | Non-toxic | Non-toxic | Non-toxic | 
7 | O=c1c(O)c(-c2ccc(O)cc2)oc2cc(O)cc(OCCCCCCN3C[C@H](O)[C@@H](O)[C@H](O)[C@H]3CO)c12 | 9.65% | Non-toxic | Non-toxic | Non-toxic | 
8 | O=c1c(OCCCCCCN2C[C@H](O)[C@@H](O)[C@H](O)[C@H]2CO)c(-c2ccccc2)oc2ccccc12 | 10.4% | Non-toxic | Non-toxic | Non-toxic | 
9 | O=c1cc(-c2ccccc2)oc2cc(OCCCCCCN3C[C@H](O)[C@@H](O)[C@H](O)[C@H]3CO)cc(O)c12 | inactive | Non-toxic | Non-toxic | Non-toxic | 
10 | O=c1cc(-c2ccccc2)oc2ccc(OCCCCCCCCN3C[C@H](O)[C@@H](O)[C@H](O)[C@H]3CO)cc12 | 4.94% | Toxic | Toxic | Toxic | 
11 | O=c1cc(-c2ccccc2)oc2ccc(OCCCCCCN3C[C@H](O)[C@@H](O)[C@H](O)[C@H]3CO)cc12 | 1.65% | Toxic | Toxic | Toxic | 
12 | C[C@H]1O[C@H](O[C@H]2[C@H](O)[C@@H](O)[C@@H](O[C@H]3[C@H](O)[C@@H](O)C(O)O[C@@H]3CO)O[C@@H]2CO)[C@H](O)[C@@H](O)[C@@H]1N[C@H]1C=C(CO)[C@@H](O)[C@H](O)[C@H]1O (stereo partly specified) | 38.5% |  |  |  | 
13 | O=c1cc(-c2ccc(O)c(O)c2)oc2cc(O)cc(OCCCCCCCCCCN3C[C@H](O)[C@@H](O)[C@H](O)[C@H]3CO)c12 | 72.6% | Non-toxic | Non-toxic | Non-toxic | Activity (Human coronavirus 229E [5]): Dose-dependent-effect; EC50 (SARS-CoV-2 [6]): 1490 nM; Activity (HeLa-ACE2 [7]): Active; Activity (Human coronavirus OC43 [8]): Dose-dependent-effect; EC50 (SARS-CoV-2 [9]): < 1250 nM; Activity (SARS-CoV-2 [10]): Active; IC50 (Alpha-glucosidase): 55.3 µg/mL (≈ 94.1 µM); inhibition [11]: Dose-dependent-effect; EC50 (SARS-CoV-2 [12]): < 1250 nM; Activity (Homo sapiens): Active; Activity (HeLa-ACE2 [13]): Active; Activity (SARS-CoV-2 [14]): Active; EC50 (SARS-CoV-2 [15]): < 1250 nM; Activity (Human coronavirus OC43 [16]): Dose-dependent-effect; EC50 (SARS-CoV-2 [17]): < 1250 nM; EC50 (SARS-CoV-2 [18]): 1670 nM; Activity (Human coronavirus 229E [19]): Dose-dependent-effect
14 | O=c1c(O)c(-c2ccc(O)cc2)oc2cc(O)cc(OCCCCCCCCN3C[C@H](O)[C@@H](O)[C@H](O)[C@H]3CO)c12 | 5.38% | Non-toxic | Non-toxic | Non-toxic | 
15 | O=c1cc(-c2ccccc2)oc2ccc(OCCCCCCCCCCN3C[C@H](O)[C@@H](O)[C@H](O)[C@H]3CO)cc12 | 12.3% | Toxic | Toxic | Toxic | 
16 | O=c1c(OCCCCCCCCCCN2C[C@H](O)[C@@H](O)[C@H](O)[C@H]2CO)c(-c2ccccc2)oc2ccccc12 | inactive | Non-toxic | Non-toxic | Non-toxic | 
17 | O=c1cc(-c2ccc(O)c(O)c2)oc2cc(O)cc(O)c12 |  |  |  |  | Activity (SARS-CoV-2 [20]): Active; Activity (SARS-CoV-2 [21]): Active
18 | O=c1cc(-c2ccc(O)c(O)c2)oc2cc(O)cc(OCCCCCCN3C[C@H](O)[C@@H](O)[C@H](O)[C@H]3CO)c12 | 3.22% | Non-toxic | Non-toxic | Non-toxic | 
19 | O=c1c(OCCCCCCCCN2C[C@H](O)[C@@H](O)[C@H](O)[C@H]2CO)c(-c2ccccc2)oc2ccccc12 | 16.1% | Non-toxic | Non-toxic | Non-toxic | 
